Assay results: ChEMBL document CHEMBL1201862, “PubChem BioAssay data set” (2004)
Active and inactive are the calls of the source. Cut-off read from the data, not from the text of the source, for most assays here: actives have a measured EC50 and inactives only a lower limit.

How the values were obtained:
[1] = molecular target: T1, Polyadenylate-binding protein 1 (Homo sapiens, UniProt P11940); experiment: MLLE binding blockers, Cy5 peptide tracer – biochemical, fluorescence polarization, Cy5-PAM2 peptide, secondary, miRNA deadenylation inhibitor project, dose response (AID 602260); format: functional; details: read-out: IC50_Mean
[2] = Luminescence Cell-Based Dose Confirmation HTS to Identify Activators of 5'UTR Stem-Loop Driven Alpha-Synuclein mRNA Translation in H4 Neuroglioblastoma Cells. [Related pubchem assays: 1829 (Project Summary), 1814 (Primary HTS)]; format: functional
[3] = molecular target: T1, Polyadenylate-binding protein 1; experiment: MLLE domain peptide-binding blockers, IC50 – biochemical, fluorescence polarization, FITC-PAM2 peptide, dose response (AID 602259); format: functional; details: read-out: IC50_Mean
H4 = experiment: Luminescence Cell-Based Dose Response HTS to Identify Activators of 5'UTR Stem-Loop Driven Prion Protein mRNA Translation in H4 Neuroglioblastoma Cells. [Related pubchem assays: 1829 (Project Summary), 1814 (Primary HTS)]; format: functional; details: Homo sapiens
[4] = Luminescence Cell-Based Dose Response HTS to Identify Activators of Luciferase Translation or Activity in H4 […] Cells. [Related pubchem assays: 1829 (Project Summary), 1814 (Primary HTS)]; format: functional
[5] = molecular target: T2, Replicative DNA helicase DnaB (Mycobacterium tuberculosis, UniProt P9WMR3); experiment: DnaB intein splicing inhibitors, dose response, biochemical, cell-free fluorescence (AID 449749); format: functional
T2 sequence (P9WMR3 whole entry): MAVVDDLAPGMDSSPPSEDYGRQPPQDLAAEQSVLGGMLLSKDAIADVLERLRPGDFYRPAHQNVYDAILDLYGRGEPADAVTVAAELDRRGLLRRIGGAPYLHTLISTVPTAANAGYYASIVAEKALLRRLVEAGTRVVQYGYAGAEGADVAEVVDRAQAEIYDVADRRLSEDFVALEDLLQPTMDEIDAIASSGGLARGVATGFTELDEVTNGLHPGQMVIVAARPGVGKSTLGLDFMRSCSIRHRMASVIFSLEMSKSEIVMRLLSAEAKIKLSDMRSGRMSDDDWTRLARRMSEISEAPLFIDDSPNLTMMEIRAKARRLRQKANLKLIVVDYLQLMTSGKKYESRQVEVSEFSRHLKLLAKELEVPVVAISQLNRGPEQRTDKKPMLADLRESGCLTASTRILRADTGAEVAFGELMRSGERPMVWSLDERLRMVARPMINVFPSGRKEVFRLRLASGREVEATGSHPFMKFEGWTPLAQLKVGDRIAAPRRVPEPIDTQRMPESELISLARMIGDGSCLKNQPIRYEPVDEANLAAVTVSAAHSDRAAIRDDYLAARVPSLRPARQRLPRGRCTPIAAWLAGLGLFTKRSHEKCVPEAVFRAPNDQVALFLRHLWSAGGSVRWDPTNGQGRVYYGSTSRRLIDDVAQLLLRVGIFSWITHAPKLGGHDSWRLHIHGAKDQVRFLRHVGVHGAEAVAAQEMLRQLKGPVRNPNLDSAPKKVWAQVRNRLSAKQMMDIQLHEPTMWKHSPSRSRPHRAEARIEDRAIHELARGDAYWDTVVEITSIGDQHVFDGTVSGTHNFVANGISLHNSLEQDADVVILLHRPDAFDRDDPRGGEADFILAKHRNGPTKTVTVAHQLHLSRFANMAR

[6] = fluconazole-exposed Candida albicans growth modulators – fluorescence, retest, confirmation (AID 2467); format: functional, cell-based
Protein RecA = molecular target: T3, Protein RecA (Mycobacterium tuberculosis, UniProt P9WHJ3); experiment: Fluorescence Cell-Free Homogeneous Dose Retest to Identify Inhibitors of RecA-Intein Splicing Activity. [Related pubchem assays (depositor defined):AID2097, AID2223, AID489010, AID492950]; format: functional
T3 sequence (P9WHJ3 whole entry): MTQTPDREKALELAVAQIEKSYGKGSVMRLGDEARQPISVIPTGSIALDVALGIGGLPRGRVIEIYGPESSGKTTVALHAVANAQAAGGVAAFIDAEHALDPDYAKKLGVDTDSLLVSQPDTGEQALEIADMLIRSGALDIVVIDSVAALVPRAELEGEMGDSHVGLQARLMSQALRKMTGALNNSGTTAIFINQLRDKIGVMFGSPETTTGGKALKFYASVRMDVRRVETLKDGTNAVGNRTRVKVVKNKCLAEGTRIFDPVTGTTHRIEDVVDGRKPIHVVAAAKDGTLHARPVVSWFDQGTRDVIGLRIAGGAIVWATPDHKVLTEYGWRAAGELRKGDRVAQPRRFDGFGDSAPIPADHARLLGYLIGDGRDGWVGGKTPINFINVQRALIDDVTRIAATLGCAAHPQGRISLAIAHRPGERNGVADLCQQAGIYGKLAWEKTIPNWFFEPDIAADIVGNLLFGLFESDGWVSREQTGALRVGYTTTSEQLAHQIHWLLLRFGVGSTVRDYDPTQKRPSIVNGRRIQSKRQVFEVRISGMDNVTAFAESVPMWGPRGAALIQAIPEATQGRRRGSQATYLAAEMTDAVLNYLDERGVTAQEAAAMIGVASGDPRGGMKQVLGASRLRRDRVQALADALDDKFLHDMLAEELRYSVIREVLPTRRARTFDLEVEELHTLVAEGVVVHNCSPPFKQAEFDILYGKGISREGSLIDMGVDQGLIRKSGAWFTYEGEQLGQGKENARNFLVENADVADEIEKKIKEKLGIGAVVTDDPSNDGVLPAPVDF

[7] = NIH-3T3 fibroblast cytotoxicity, dose response, cytotoxicity control, cell-based, fluorescence, Alamar Blue, secondary assay (AID 2327); format: functional;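 note: NIH-3T3 mouse fibroblasts cultured with fluconazole at 8 µg/mL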
Coagulation factor XII = molecular target: T4, Coagulation factor XII (Homo sapiens, UniProt P00748); format: functional;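 note: activated factor XIIa alpha cleaving a fluorogenic AMC peptide substrate; inhibitor potency from loss of enzyme activity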
T4 sequence (P00748 whole entry): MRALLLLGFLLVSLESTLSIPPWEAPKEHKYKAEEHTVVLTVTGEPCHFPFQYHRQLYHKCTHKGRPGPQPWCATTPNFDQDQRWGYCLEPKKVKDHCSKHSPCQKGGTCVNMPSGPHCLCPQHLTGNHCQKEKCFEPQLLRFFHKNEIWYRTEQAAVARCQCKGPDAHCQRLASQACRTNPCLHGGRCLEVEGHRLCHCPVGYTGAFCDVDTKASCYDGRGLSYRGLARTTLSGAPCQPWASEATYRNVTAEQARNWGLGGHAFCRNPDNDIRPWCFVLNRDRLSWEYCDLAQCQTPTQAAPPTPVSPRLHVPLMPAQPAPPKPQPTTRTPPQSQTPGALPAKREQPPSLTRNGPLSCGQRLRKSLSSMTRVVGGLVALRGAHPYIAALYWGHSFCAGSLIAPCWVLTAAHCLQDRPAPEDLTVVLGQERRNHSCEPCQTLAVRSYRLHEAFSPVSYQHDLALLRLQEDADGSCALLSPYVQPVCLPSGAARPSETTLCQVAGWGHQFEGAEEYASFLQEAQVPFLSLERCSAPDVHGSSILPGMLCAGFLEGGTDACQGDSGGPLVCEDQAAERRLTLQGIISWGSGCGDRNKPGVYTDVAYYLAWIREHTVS

BJ [8] = experiment: cells; format: functional, cell-based; details: Homo sapiens
BJ [9] = experiment: BJ-TERT-LT-ST fibroblast viability loss – cell-based, RAS-independent, luminescence, dose response (AID 1935); format: functional; details: Homo sapiens;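 note: BJ fibroblasts immortalized with TERT plus LT and ST oncogenes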
[10] = DRD fibroblast viability loss – cell-based, non-viral oncogenic, luminescence, dose response (AID 1934); format: functional; details: Homo sapiens
BJ [11] = experiment: BJ-TERT fibroblast viability loss – cell-based, RAS-independent, luminescence, dose response (AID 1933); format: functional; details: Homo sapiens
[12] = molecular target: T5, Calpain-2 catalytic subunit (Sus scrofa, UniProt P43367); experiment: m-calpain protease blockers, concentration series – biochemical, fluorogenic peptide substrate, dose response (AID 1420); format: functional
T5 sequence (P43367 whole entry): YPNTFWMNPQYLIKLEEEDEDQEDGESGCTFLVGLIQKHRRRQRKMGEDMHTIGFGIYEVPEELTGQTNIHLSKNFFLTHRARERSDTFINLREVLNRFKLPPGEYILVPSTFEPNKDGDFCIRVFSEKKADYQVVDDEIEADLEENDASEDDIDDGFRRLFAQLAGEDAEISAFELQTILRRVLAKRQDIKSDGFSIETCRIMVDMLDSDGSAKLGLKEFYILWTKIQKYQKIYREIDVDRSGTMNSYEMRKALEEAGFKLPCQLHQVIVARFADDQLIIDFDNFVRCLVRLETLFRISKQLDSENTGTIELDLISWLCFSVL

[13] = tested on: Streptococcus sp. 'group A'; experiment: Streptococcus pyogenes SK(-)GAS viability under kanamycin – luminescence, BacTiterGlo, confirmation, counter-screen for streptokinase expression inhibitor project, dose response (AID 1900); format: functional, organism-based
Streptokinase A = molecular target: T6, Streptokinase A (Streptococcus pyogenes serotype M1, UniProt P10520); experiment: viability-normalized secreted streptokinase activity reduction – plasminogen activation absorbance, OD405, dose response (AID 1914); format: functional, Streptococcus pyogenes M1 GAS;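 note: secreted streptokinase activity via plasminogen activation per viability signal from cell pellet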
T6 sequence (P10520 whole entry): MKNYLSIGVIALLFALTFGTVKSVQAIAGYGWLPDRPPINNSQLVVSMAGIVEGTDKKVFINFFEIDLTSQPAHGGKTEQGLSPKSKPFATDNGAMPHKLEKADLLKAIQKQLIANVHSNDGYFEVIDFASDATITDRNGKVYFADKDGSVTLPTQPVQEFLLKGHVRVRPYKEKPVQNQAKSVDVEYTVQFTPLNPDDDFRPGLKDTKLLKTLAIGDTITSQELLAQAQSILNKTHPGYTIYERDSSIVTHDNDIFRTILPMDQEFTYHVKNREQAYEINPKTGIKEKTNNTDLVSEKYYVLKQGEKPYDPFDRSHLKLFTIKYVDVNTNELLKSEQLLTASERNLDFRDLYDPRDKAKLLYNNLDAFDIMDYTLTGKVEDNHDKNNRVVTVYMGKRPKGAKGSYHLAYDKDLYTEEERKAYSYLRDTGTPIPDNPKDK

[14] = molecular target: Luciferin 4-monooxygenase (Photinus pyralis, UniProt P08659); experiment: inhibition of purified Photinus pyralis luciferase – biochemical, luminescence, dose response (AID 1891)
[15] = Luminescence Cell-Based Dose Confirmation HTS to Identify Inhibitors of Platelet Dense Granule Release. [Related pubchem assays: 1663 (Primary HTS), 1678 (Summary of Project)]; format: functional
Streptococcus = experiment: GAS UMAA2166 growth inhibition – luminescence, BacTiterGlo, counter-screen for streptokinase expression inhibitor project, dose response (AID 1915); format: functional, organism-based;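 note: potency for reduction of bacterial viability or growth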
Protein skinhead-1 = molecular target: T7, Protein skinhead-1 (Caenorhabditis elegans, UniProt P34707); format: functional
T7 sequence (P34707 whole entry): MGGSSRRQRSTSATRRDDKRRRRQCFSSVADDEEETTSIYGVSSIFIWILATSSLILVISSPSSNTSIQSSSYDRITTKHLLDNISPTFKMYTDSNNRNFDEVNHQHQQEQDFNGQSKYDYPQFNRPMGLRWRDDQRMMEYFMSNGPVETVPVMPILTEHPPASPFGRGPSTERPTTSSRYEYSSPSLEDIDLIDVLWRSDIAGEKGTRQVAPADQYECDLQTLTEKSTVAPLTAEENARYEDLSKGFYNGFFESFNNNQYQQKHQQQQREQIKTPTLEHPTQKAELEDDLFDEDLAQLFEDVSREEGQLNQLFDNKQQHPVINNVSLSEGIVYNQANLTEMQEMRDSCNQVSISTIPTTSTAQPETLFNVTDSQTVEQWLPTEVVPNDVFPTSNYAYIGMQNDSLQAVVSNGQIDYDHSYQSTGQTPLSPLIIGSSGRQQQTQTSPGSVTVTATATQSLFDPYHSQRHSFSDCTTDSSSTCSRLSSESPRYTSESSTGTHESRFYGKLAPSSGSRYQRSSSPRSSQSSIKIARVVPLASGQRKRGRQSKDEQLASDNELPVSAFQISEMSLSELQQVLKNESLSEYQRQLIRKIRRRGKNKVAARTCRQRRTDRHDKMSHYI

T1 sequence (P11940 whole entry): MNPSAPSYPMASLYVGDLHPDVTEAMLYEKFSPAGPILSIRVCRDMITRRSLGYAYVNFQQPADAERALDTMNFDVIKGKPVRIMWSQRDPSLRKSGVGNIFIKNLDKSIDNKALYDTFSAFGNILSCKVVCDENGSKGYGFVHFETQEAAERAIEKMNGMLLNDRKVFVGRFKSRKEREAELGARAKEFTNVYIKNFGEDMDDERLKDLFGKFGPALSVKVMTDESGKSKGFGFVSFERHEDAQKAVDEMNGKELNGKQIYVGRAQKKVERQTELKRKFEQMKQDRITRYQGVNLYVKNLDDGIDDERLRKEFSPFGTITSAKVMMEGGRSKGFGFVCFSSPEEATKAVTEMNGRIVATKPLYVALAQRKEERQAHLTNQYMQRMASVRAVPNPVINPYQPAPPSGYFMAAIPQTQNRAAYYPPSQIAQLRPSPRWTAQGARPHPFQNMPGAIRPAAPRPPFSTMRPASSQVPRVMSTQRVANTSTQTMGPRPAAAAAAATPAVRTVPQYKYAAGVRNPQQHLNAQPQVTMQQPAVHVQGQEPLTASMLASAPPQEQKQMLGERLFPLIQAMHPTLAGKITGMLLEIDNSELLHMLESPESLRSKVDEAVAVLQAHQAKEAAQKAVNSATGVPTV
Luciferin 4-monooxygenase, sequence (P08659 whole entry): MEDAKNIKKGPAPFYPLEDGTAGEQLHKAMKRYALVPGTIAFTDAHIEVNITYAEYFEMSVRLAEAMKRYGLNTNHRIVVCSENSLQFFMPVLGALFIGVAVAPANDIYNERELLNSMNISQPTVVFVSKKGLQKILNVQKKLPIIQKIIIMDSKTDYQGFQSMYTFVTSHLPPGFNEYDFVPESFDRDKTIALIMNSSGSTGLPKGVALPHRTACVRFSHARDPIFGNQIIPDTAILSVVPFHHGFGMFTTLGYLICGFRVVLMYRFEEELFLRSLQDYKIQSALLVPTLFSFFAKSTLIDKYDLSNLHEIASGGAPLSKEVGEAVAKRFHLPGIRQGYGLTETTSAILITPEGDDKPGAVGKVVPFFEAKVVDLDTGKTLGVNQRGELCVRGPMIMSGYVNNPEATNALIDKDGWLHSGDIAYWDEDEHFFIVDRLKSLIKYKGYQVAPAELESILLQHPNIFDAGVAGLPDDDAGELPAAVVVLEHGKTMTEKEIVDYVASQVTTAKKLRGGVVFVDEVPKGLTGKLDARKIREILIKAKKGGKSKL

| SMILES | EC50 [2] | EC50 (H4) | EC50 [4] | IC50 (Coagulation factor XII) | also measured |
| --- | --- | --- | --- | --- | --- |
| O=C(CC(SCCO)c1ccc2c(c1)OCO2)c1cccs1 (stereo not given) | 3.91 µM (active) | 9.36 µM (active) | 119 µM (active) | – | IC50 [1]: > 66 µM (inactive); IC50 [3]: > 66 µM (inactive) |
| O=c1c(Cl)c(NCCCO)cnn1-c1nc2ccccc2[nH]1 | 25.2 µM (active) | 88 µM (active) | – | – | AC50 [5]: > 380 µM (inactive); EC50 [6]: 3.47 µM (active); EC50 (Protein RecA): 7.41 µM (active); EC50 [7]: 9.04 µM (inconclusive) |
| O=C(NC(=O)c1csnn1)Nc1ccccc1Cl | 5.61 µM (active) | > 60 µM (not active) | 94 µM (active) | – | – |
| COc1cc(OC)cc(C(=O)NCC(=O)Nc2ccc(-c3ccccc3)cc2)c1 | > 60 µM (not active) | 9.12 µM (active) | 55.6 µM (active) | – | – |
| CCn1c(O)cc(=O)nc1SCC(=O)N1CCCCC1 | – | – | – | > 50 µM (inactive) | – |
| CCOC(=O)c1nn(-c2ccc3c(c2)OCO3)cc1O | 16.6 µM (active) | 23.9 µM (active) | 15.7 µM (active) | – | – |
| Cc1ccc(C(CC(=O)NCCCN(C)C)c2ccc(OC(C)C)cc2)cc1 (stereo not given) | – | – | – | > 50 µM (inactive) | – |
| Cc1cccc(N2C(=O)NC(=O)/C(=C\c3c(-c4ccccc4)[nH]c4ccccc34)C2=O)c1 | > 120 µM (not active) | > 120 µM (not active) | 0.511 µM (active) | – | EC50 (BJ [8]): 58.6 µM (active); EC50 (BJ [9]): 11.5 µM (inconclusive); EC50 [10]: 3.33 µM (active); EC50 (BJ [11]): 3.69 µM (active) |
| COc1ccccc1C(=O)n1nc(-c2cccnc2)nc1N | – | – | – | 0.503 µM (active) | – |
| O=C(Cc1ccccc1[N+](=O)[O-])Nc1ccccc1C(=O)N1CCCC1 | – | – | – | > 50 µM (inactive) | – |
| COCCCn1c(=O)/c(=C\c2ccccc2OC(C)C)s/c1=C(/C#N)C(=O)Nc1ccc(C(=O)O)cc1 | – | – | – | > 50 µM (inactive) | IC50 [12]: 3.61 µM (not active); EC50 [13]: 1.44 µM (active); EC50 (Streptokinase A): > 150 µM (not active); EC50 [14]: > 112 µM (not active); EC50 [15]: > 112 µM (not active); EC50 (Streptococcus): > 50 µM (not active) |
| O=C(Oc1cncc(Cl)c1)c1ccco1 | – | – | – | 1.39 µM (active) | IC50 (Protein skinhead-1): > 100 µM (inactive) |
